Experimental data as given in article PMC10135964, “One Scaffold, Two Conformations: The Ring-Flip of the Messenger InsP8 Occurs under Cytosolic Conditions” (Biomolecules, 2023).

Tests used:
[1] = 31P-NMR titrations of InsP8 (protonation, K+ and Mg2+ complex formation constants, HypNMR); format: physicochemical; conditions: for pH of the conformational change: 1 mM InsP8, 22 °C
Protocol: In order to create a system free of coordinating counterions, a batch of InsP8 was synthesized as described above, by enzymatic phosphorylation of 5PP-InsP5 and precipitation with Mg^2+, followed by Mg^2+ chelation on Amberlite® cation exchange resin. Unlike in the standard procedure, the resin was loaded with NMe4Cl instead of NH4CO3, resulting in a batch of InsP8 with non-coordinating NMe4^+ counterions. 1 mM EDTA was added to all ^31P-NMR titrations to chelate remaining traces of Mg^2+.
NMR-samples contained 1 mM InsP8, 1 mM EDTA, pH 3.0–12.5 (in H2O, steps of 0.5 pH units) and a) for the non-coordinating condition: 150 mM NMe4Cl or b) 150 mM KCl or c) 150 mM KCl and 1 mM MgCl2. Sealed glass capillaries containing 50 mM phosphonoacetic acid in D2O were added into the sample tubes for locking and chemical shift calibration.
^31P-NMR spectra were recorded at 295 K on a Bruker spectrometer (see above) operating at 600 MHz for protons and 244 MHz for phosphorous nuclei. SW: −40 ppm to −20 ppm, NS: 1024. Spectra at pH 3.0 were assigned by various 2D-NMR methods (Figure S5) and chemical shift changes were tracked across the pH range.
The data were analyzed using the HypNMR 2006 software (Hyperquad Limited, Lincoln, UK). Different possible stoichiometries were tested, and the final chemical models were selected on the basis of the σ parameter (scaled sum of square differences between predicted and experimental chemical shift values), the model confidence level estimator (chi square), and the internal consistency of data reflected in standard deviations of the formation constants. Species distribution diagrams were produced using the HySS program (Hyperquad Limited, Lincoln, UK).

VTC complex = test system: VTC complex; set-up: method as in PMID 28186404; conditions: in vitro, VTC complex from budding yeast S. cerevisiae; cited from earlier work

pH of the conformational change ([1]; 150 mM K+): 8.5–9.0
pH of the transition to the equatorial conformation ([1]; 150 mM KCl and 1 mM MgCl2, 1 mM InsP8, 22 °C): ~8.5
log K, 2 K^+ + H5L^9− ↔ [K2(H5L)]^7− ([1]; 31P NMR, 22 °C, I = 0.15 M): 3.820(7)
log K, 3 K^+ + H4L^10− ↔ [K3(H4L)]^7− ([1]; 31P NMR, 22 °C, I = 0.15 M): 5.446(5)
log K, 4 K^+ + H2L^12− ↔ [K4(H2L)]^8− ([1]; 31P NMR, 22 °C, I = 0.15 M): 9.76(3)
log K, 5 K^+ + HL^13− ↔ [K5(HL)]^8− ([1]; 31P NMR, 22 °C, I = 0.15 M): 12.47(3)
log K, K^+ + H6L^8− ↔ [K(H6L)]^7− ([1]; 31P NMR, 22 °C, I = 0.15 M): 2.58(5)
log K, K^+ + H7L^7− ↔ [K(H7L)]^6− ([1]; 31P NMR, 22 °C, I = 0.15 M): 2.08(3)
log K, L^14− + 2 H^+ ↔ H2L^12− ([1]; 31P NMR, 22 °C, I = 0.15 M): 22.78(2)
log K, L^14− + 3 H^+ ↔ H3L^11− ([1]; 31P NMR, 22 °C, I = 0.15 M): 34.22(2)
log K, L^14− + 4 H^+ ↔ H4L^10− ([1]; 31P NMR, 22 °C, I = 0.15 M): 43.96(2)
log K, L^14− + 5 H^+ ↔ H5L^9− ([1]; 31P NMR, 22 °C, I = 0.15 M): 52.58(3)
log K, L^14− + 6 H^+ ↔ H6L^8− ([1]; 31P NMR, 22 °C, I = 0.15 M): 59.41(8)
log K, L^14− + 7 H^+ ↔ H7L^7− ([1]; 31P NMR, 22 °C, I = 0.15 M): 64.91(6)
log K, L^14− + 8 H^+ ↔ H8L^6− ([1]; 31P NMR, 22 °C, I = 0.15 M): 68.79(7)
log K, L^14− + H^+ ↔ HL^13− ([1]; 31P NMR, 22 °C, I = 0.15 M): 11.21(1)
log K, Mg^2+ + H2L^12− + 3 K^+ ↔ [MgK3(H2L)]^7− ([1]; 31P NMR, 22 °C, I = 0.15 M): 18.1(1)
log K, Mg^2+ + H4L^10− + 2 K^+ ↔ [MgK2(H4L)]^6− ([1]; 31P NMR, 22 °C, I = 0.15 M): 11.6(1)
log K, Mg^2+ + H5L^9− + K^+ ↔ [MgK(H5L)]^6− ([1]; 31P NMR, 22 °C, I = 0.15 M): 9.1(1)
log K, Mg^2+ + H6L^8− + K^+ ↔ [MgK(H6L)]^5− ([1]; 31P NMR, 22 °C, I = 0.15 M): 7.3(1)
log K, Mg^2+ + HL^13− + 4 K^+ ↔ [MgK4(HL)]^7− ([1]; 31P NMR, 22 °C, I = 0.15 M): 21.6(1)
log K, Mg^2+ + L^14− + 4 K^+ ↔ [MgK4L]^8− ([1]; 31P NMR, 22 °C, I = 0.15 M): 22.4(1)
negative charges carried ([1]; pH 7.4): 10–11
most abundant species ([1]; physiological pH range, 150 mM KCl and 1 mM MgCl2, 22 °C): [MgK3(H3L)]^6−
pH of the conformational change ([1]; without coordinating cations (150 mM NMe4Cl)): ~11
SMILES: O=P(O)(O)O[C@@H]1[C@@H](OP(=O)(O)O)[C@H](OP(=O)(O)OP(=O)(O)O)[C@@H](OP(=O)(O)O)[C@H](OP(=O)(O)OP(=O)(O)O)[C@@H]1OP(=O)(O)O [InsP8, 1,5(PP)2-InsP4]
effectiveness at activating polyphosphate synthesis by the VTC complex (VTC complex): twenty-times more effective than 5PP-InsP5
